Measurements: PMC4393269, “Carvacrol Codrugs: A New Approach in the Antimicrobial Plan” (PLoS ONE, 2015)
Read-outs that look alike come from different tables or passages of the source.

Assays:
[1] = Kinetics of chemical hydrolysis in buffers; format: physicochemical; details: for half-life at 9.1 µM: read-out: t½ (converted)
Protocol: (§1) The HPLC system consisted of a Waters 600 HPLC pump (Waters Corporation, Milford, MA, USA), equipped with a Waters 2996 photodiode array detector. The column was a Kinetex RP-C8 column (3.0 x 150 mm, 5 μm). The mobile phase consisted of 0.1% TFA in acetonitrile/0.1% TFA in 95% H2O and 5% acetonitrile 50:50, under isocratic conditions at a flow rate of 1 mL/min. The UV detector was set at a length of 220 nm.
[…] Reactions were initiated by adding 1 mL of 10^-4 M stock solution (in acetonitrile) of the compound to 10 mL of the appropriate aqueous buffer solution, containing 20% acetonitrile. At appropriate time intervals, samples of 20 μL were withdrawn and analyzed by HPLC. Pseudo-first-order rate constants (kobs) for the hydrolysis of the compounds were then calculated from the slopes of the linear plots of log (% residual compound) against time. The experiments were run in triplicate and the mean values of the rate constants were calculated.

[2] = Drug stability in simulated intestinal fluid with pancreatin; format: in vitro ADME; details: 37°C, read-out: t½ (converted)
Protocol: as §1
(§2) To assess enzymatic stability, hydrochloric buffer with pepsin (10 or 40 mg/mL) and phosphate buffer with pancreatin (10 or 40 mg/mL) were used. Buffer solution (250 μL) was preincubated at 37°C and 50 μL of drug stock solution (50 μM in ethanol and FASSIF 1:9) were added and shaken at 37°C and 650 rpm. Samples of 100 μL were withdrawn at various times and 100 µL of ice-cold acetonitrile containing 0.5 v/v% formic acid were added to stop enzymatic activity. Samples were vortexed and centrifuged at 2°C and 10000 rpm for 10 min. The drug content in the supernatant was analyzed by HPLC.

pancreatin = test: as above; format: in vitro ADME; details: 37°C
Protocol: as §1, §2

[3] = SIF pH 7.4, pancreatin 10 mg/mL

Question: With `C=CCSC[C@H](NC(C)=O)C(=O)Oc1cc(C(C)C)ccc1C` [codrug 4, N-Ac-Cys(Allyl)-CAR] as the molecule, how does the half-life at 9.1 µM ([1]; aqueous buffer pH 5.0, pH 5.0, 37°C) read?
Answer: 62.1 h

Question: What about the half-life at 9.1 µM ([1]; hydrochloric acid buffer pH 1.3 (non-enzymatic SGF), pH 1.3, 37°C) of the same molecule?
Answer: 75.4 h

Question: And the kobs ([1]; pH 1.3, 37°C)?
Answer: 0.009 (± 0.001) h^-1

Question: And the kobs ([1]; pH 7.4, 37°C)?
Answer: 0.030 (± 0.001) h^-1

Question: What about the half-life at 9.1 µM ([1]; phosphate buffer pH 7.4 (non-enzymatic SIF), pH 7.4, 37°C) of the same molecule?
Answer: 22.9 h

Question: And the half-life at 8.3 µM ([2]; simulated intestinal fluid with pancreatin 10 mg/mL, pH 7.4, SIF pH 7.4, pancreatin 10 mg/mL)?
Answer: 5.5 h

Question: And the half-life at 8.3 µM ([2]; simulated intestinal fluid with pancreatin 40 mg/mL, pH 7.4, SIF pH 7.4, pancreatin 40 mg/mL)?
Answer: ~1 h

Question: And the kobs (pancreatin; [3])?
Answer: 0.126 (± 0.003) h^-1

Question: What about the t½ (pancreatin; [3]) of the same molecule?
Answer: 5.51 (± 0.13) h

Question: What about the kobs (pancreatin; SIF pH 7.4, pancreatin 40 mg/mL) of the same molecule?
Answer: 0.83 (± 0.02) h^-1
